Consider 17 compounds from US12679848B2, “Plasma kallikrein inhibitors” (Merck Sharp & Dohme LLC, priority 2020, dated 2026).

Assay [1] addresses T1, Human plasma kallikrein (Homo sapiens, UniProt P03952).
T1 construct: yields a heavy chain (371 amino acids) and a light chain (248 amino acids); The active site of plasma kallikrein is contained in the light chain; purchased Enzyme Research Laboratories
The experiment in a line: Plasma Kallikrein Assay. It is filed as biochemical. To be noted: purified Human plasma kallikrein 0.5 nM, substrate Acetyl-K-P-R-AFC, HEPES pH 7.4; read-out: PKal IC50. As for the experimental part: (§1) The effectiveness of a compound of the present invention as an inhibitor of plasma kallikrein can be determined using a relevant purified serine protease, and an appropriate synthetic substrate. The rate of hydrolysis of the chromogenic or fluorogenic substrate by the relevant serine protease was measured both in the absence and presence of compounds of the present invention. Assays were conducted at rt or at 37° C. […] A decrease in the rate of fluorescence change in the presence of inhibitor is indicative of enzyme inhibition. Such methods are known to one skilled in the art. The results of this assay are expressed as the half-maximal inhibitory concentrations (IC50), or the inhibitory constant, Ki.
Plasma kallikrein determinations were made in 50 mM HEPES buffer at pH 7.4 containing 150 mM NaCl, 5 mM CaCl2), and 0.1% PEG 8000 (polyethylene glycol; Fisher Scientific). Determinations were made using purified Human plasma kallikrein at a final concentration of 0.5 nM (Enzyme Research Laboratories) and the synthetic substrate, Acetyl-K—P—R-AFC (Sigma #C6608) at a concentration of […].
Times required to achieve equilibration between enzyme and inhibitor were determined in control experiments. […] IC50 was determined by inflection point from a four parameter logistic curve fit. Ki was calculated using the Cheng Prusoff equation, Ki=IC50/[…](1+([S]/Km)).

In assay [2] the target is human factor XIa (Homo sapiens, UniProt P03951). The experiment in a line: Factor XIa Assay. The class given is biochemical. To be noted: human factor XIa 0.04 nM, substrate GPR-AFC, 30 min pre-incubation, 25° C., pH 7.4; read-out: FXIa IC50. As for the experimental part: as §1, with “Coagulation factor XIa” for “plasma kallikrein”
Sequence of human factor XIa (P03951 388-625 limits assumed): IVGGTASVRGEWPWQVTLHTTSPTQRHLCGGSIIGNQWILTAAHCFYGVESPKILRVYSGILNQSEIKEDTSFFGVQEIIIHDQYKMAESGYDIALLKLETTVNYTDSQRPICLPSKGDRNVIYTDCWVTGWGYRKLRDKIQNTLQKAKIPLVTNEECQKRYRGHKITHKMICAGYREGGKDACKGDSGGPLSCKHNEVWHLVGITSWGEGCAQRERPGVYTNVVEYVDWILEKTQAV
Sequence of human factor XIa (P03951 19-387 partner limits assumed): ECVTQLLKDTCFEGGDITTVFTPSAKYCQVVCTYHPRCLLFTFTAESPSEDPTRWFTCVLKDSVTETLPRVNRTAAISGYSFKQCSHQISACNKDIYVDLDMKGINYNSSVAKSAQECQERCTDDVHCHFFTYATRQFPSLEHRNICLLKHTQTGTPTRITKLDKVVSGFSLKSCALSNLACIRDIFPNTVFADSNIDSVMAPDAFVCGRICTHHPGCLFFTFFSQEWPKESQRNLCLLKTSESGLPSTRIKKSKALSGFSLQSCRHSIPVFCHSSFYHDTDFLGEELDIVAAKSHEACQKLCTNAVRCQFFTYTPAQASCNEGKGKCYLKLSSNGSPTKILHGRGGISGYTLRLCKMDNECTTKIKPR
Compounds were pre-incubated for 30 min at 25° C. with human (0.04 nM) factor XIa in 50 mM HEPES buffer with 150 mM sodium chloride, 5 mM calcium chloride, 0.1% PEG 8000, pH 7.4. factor XIa enzymatic activity was determined by addition of the substrate glycine-proline-arginine-7-amido-4-trifluoromethylcoumarin (GPR-AFC) and measurement of the fluorescence at 400/505 nm after a 60 min incubation at 25° C. The % inhibition for each data point was calculated from the data and analyzed using the log (inhibitor) vs. response four parameters equation to determine the half-maximal inhibitory concentrations (IC50). The IC50 were converted to equilibrium inhibitory constants (Ki) using the Cheng-Prusoff equation.

T1 sequence (P03952 391-638 limits assumed): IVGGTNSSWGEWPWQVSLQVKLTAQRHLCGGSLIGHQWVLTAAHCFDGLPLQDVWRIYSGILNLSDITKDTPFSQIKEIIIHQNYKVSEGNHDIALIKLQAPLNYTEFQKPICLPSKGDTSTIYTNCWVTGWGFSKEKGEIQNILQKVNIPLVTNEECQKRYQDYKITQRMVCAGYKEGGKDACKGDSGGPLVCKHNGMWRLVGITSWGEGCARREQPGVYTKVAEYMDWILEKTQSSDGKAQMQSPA
T1 sequence (P03952 20-390 partner limits assumed): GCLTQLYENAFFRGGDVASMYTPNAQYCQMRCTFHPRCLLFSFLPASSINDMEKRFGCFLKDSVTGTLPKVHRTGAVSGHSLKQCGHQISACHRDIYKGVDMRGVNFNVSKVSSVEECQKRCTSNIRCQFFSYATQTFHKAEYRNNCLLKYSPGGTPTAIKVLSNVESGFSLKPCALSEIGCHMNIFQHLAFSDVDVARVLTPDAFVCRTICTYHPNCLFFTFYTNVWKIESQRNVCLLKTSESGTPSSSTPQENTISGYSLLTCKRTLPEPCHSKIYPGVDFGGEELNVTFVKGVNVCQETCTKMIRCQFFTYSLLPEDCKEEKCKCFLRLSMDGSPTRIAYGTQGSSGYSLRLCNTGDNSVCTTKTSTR

In general, IC50 refers to the concentration at which inhibition is half-maximal. Take `Nc1c(C(=O)N2CCC[C@@]3(C2)OC(=O)Nc2ccc(Cl)c(F)c23)cnn1C(C1CC1)C(F)(F)F` (single isomer, unassigned) [Example 125, (R)-1'-(5-Amino-1-((S or R)-1-cyclopropyl-2,2,2-trifluoroethyl)-1H-pyrazole-4-carbonyl)-6-chloro-5-fluorospiro[benzo[d][1,3]oxazine-4,3'-piperidin]-2(1H)-one]: the IC50 worked out at 4.5 nM in assay [1] and 154 nM in assay [2].

Take `CC(C1CC1)(n1ncc(C(=O)N2CCC[C@@]3(C2)OC(=O)Nc2ccc(Cl)c(F)c23)c1N)C(F)(F)F` (single isomer, unassigned) [Example 126, (R)-1'-(5-Amino-1-((R or S)-2-cyclopropyl-1,1,1-trifluoropropan-2-y1)-1H-pyrazole-4-carbonyl)-6-chloro-5-fluorospiro[benzo[d][1,3]oxazine-4,3'-piperidin]-2(1H)-one]: the IC50 in assay [1] turned out to be 2.2 nM; in assay [2], 459 nM.

For `CC(C1CC1)(n1ncc(C(=O)N2CCC[C@@]3(C2)OC(=O)Nc2ccc(Cl)c(F)c23)c1N)C(F)(F)F` (single isomer, unassigned) [Example 127, (R)-1'-(5-Amino-1-((S or R)-2-cyclopropyl-1,1,1-trifluoropropan-2-y1)-1H-pyrazole-4-carbonyl)-6-chloro-5-fluorospiro[benzo[d][1,3]oxazine-4,3'-piperidin]-2(1H)-one], the IC50 in assay [1] turned out to be 6.8 nM; in assay [2] it was 1020 nM.

As to `COCC(C)(n1ncc(C(=O)N2CCC[C@@]3(C2)OC(=O)Nc2ccc(Cl)c(F)c23)c1N)C(F)(F)F` (single isomer, unassigned) [Example 128, (R)-1'-(5-Amino-1-((R or S)-1,1,1-trifluoro-3-methoxy-2-methylpropan-2-y1)-1H-pyrazole-4-carbonyl)-6-chloro-5-fluorospiro[benzo[d][1,3]oxazine-4,3'-piperidin]-2(1H)-one], the IC50 in assay [1] is 4.7 nM; in assay [2], 973 nM.

With `COCC(C)(n1ncc(C(=O)N2CCC[C@@]3(C2)OC(=O)Nc2ccc(Cl)c(F)c23)c1N)C(F)(F)F` (single isomer, unassigned) [Example 129], the IC50 is 6.5 nM in assay [1] and 898 nM in assay [2].

As to `CCC(n1ncc(C(=O)N2CC(C)(C)C[C@@]3(C2)OC(=O)Nc2ccc(Cl)c(F)c23)c1N)C(F)(F)F` (single isomer, unassigned) [Example 130, (R)-1'-(5-Amino-1-((R or S)-1,1,1-trifluorobutan-2-y1)-1H-pyrazole-4-carbonyl)-6-chloro-5-fluoro-5',5'-dimethylspiro[benzo[d][1,3]oxazine-4,3'-piperidin]-2(1H)-one], the IC50 in assay [1] came to 1.6 nM; in assay [2], 8 nM.

As for `CCC(n1ncc(C(=O)N2CC(C)(C)C[C@@]3(C2)OC(=O)Nc2ccc(Cl)c(F)c23)c1N)C(F)(F)F` (single isomer, unassigned) [Example 131, (R)-1'-(5-Amino-1-((S or R)-1,1,1-trifluorobutan-2-y1)-1H-pyrazole-4-carbonyl)-6-chloro-5-fluoro-5',5'-dimethylspiro[benzo[d][1,3]oxazine-4,3'-piperidin]-2(1H)-one], the IC50 in assay [1] was determined as 1.2 nM; in assay [2] it was 70 nM.

As to `Nc1c(C(=O)N2CCC[C@@]3(C2)OC(=O)Nc2ccc(Cl)c(F)c23)cnn1CC(F)(F)F` [Example 1, (R)-1′-(5-Amino-1-(2,2,2-trifluoroethyl)-1H-pyrazole-4-carbonyl)-6-chloro-5-fluorospiro[benzo[d][1,3]oxazine-4,3′-piperidin]-2(1H)-one], the figures for the concentration for half-maximal inhibition (IC50) in assay [1] and in assay [2] were 11.2 nM and 408 nM, respectively.

Turning to `CC1(C)CN(C(=O)c2cnn(CC(F)(F)F)c2N)C[C@]2(C1)OC(=O)Nc1ccc(Cl)c(F)c12` [Example 2, (R)-1′-(5-Amino-1-(2,2,2-trifluoroethyl)-1H-pyrazole-4-carbonyl)-6-chloro-5-fluoro-5′,5′-dimethylspiro[benzo[d][1,3]oxazine-4,3′-piperidin]-2(1H)-one], the IC50 in assay [1] is 2.7 nM; in assay [2], 211 nM.

With `Nc1c(C(=O)N2CCC[C@@]3(C2)OC(=O)Nc2ccc(Cl)c(F)c23)cnn1Cc1cccc(C(F)(F)F)c1` [Example 5, (R)-1'-(5-Amino-1-(3-(trifluoromethyl)benzy1)-1H-pyrazole-4-carbonyl)-6-chloro-5-fluorospiro[benzo[d][1,3]oxazine-4,3'-piperidin]-2(1H)-one], the IC50 in assay [1] is 1.7 nM; in assay [2], 726 nM.

For `Nc1c(C(=O)N2CCC[C@@]3(C2)OC(=O)Nc2ccc(Cl)c(F)c23)cnn1Cc1cccc(Cl)c1` [Example 6, (R)-1'-(5-Amino-1-(3-chlorobenzyl)-1H-pyrazole-4-carbonyl)-6-chloro-5-fluorospiro[benzo[d][1,3]oxazine-4,3'-piperidin]-2(1H)-one], the figures for the IC50 in assay [1] and in assay [2] were 0.5 nM and 177 nM, respectively.

Turning to `Cc1ccc(Cn2ncc(C(=O)N3CCC[C@@]4(C3)OC(=O)Nc3ccc(Cl)c(F)c34)c2N)cc1` [Example 7, (R)-1'-(5-Amino-1-(4-methylbenzyl)-1H-pyrazole-4-carbonyl)-6-chloro-5-fluorospiro[benzo[d][1,3]oxazine-4,3'-piperidin]-2(1H)-one], the IC50 was found to be 0.5 nM in assay [1] and 201 nM in assay [2].

`Nc1c(C(=O)N2CCC[C@@]3(C2)OC(=O)Nc2ccc(Cl)c(F)c23)cnn1Cc1cccc(F)c1` [Example 9, (R)-1'-(5-Amino-1-(3-fluorobenzyl)-1H-pyrazole-4-carbonyl)-6-chloro-5-fluorospiro[benzo[d][1,3]oxazine-4,3'-piperidin]-2(1H)-one]: the IC50 was 0.9 nM in assay [1] and 252 nM in assay [2].

In the case of `CC1(C)CN(C(=O)c2cnn(Cc3ccccc3)c2N)C[C@]2(C1)OC(=O)Nc1ccc(Cl)c(F)c12` [Example 10, (R)-1'-(5-Amino-1-benzyl-1H-pyrazole-4-carbonyl)-6-chloro-5-fluoro-5',5'-dimethylspiro[benzo[d][1,3]oxazine-4,3'-piperidin]-2(1H)-one], the IC50 in assay [1] came out at 1.3 nM; in assay [2], 122 nM.

On to `Cc1noc(C)c1Cn1ncc(C(=O)N2CCC[C@@]3(C2)OC(=O)Nc2ccc(Cl)c(F)c23)c1N` [Example 11, (R)-1'-(5-Amino-1-((3,5-dimethylisoxazol-4-yl)methyl)-1H-pyrazole-4-carbonyl)-6-chloro-5-fluorospiro[benzo[d][1,3]oxazine-4,3'-piperidin]-2(1H)-one], for which the IC50 was 1.7 nM in assay [1] and 438 nM in assay [2].

On to `Nc1c(C(=O)N2CCC[C@@]3(C2)OC(=O)Nc2ccc(Cl)c(F)c23)cnn1CC1CCOCC1` [Example 12, (R)-1'-(5-Amino-1-((tetrahydro-2H-pyran-4-yl)methyl)-1H-pyrazole-4-carbonyl)-6-chloro-5-fluorospiro[benzo[d][1,3]oxazine-4,3'-piperidin]-2(1H)-one], for which the IC50 in assay [1] was 8.1 nM; in assay [2], 476 nM.

As for `Nc1c(C(=O)N2CCC[C@@]3(C2)OC(=O)Nc2ccc(Cl)c(F)c23)cnn1CC1CC1` [Example 13, (R)-1'-(5-Amino-1-(cyclopropylmethyl)-1H-pyrazole-4-carbonyl)-6-chloro-5-fluorospiro[benzo[d][1,3]oxazine-4,3'-piperidin]-2(1H)-one], the IC50 in assay [1] came to 7.2 nM; in assay [2], 582 nM.
